Data published in patent publication US10647738B2, “Xylene-based amphiphilic compound and use thereof” (Industry-University Cooperation Foundation Hanyang …, priority 2016, dated 2020).
Values joined by “and” are separate entries in the source; they are usually repeats but may differ in a detail not shown here. Equal values may be shown once. “Also recorded” adds a separate entry of the source.

Assays:
[1] = Critical micelle concentration by fluorescence staining with diphenylhexatriene (DPH); type: physicochemical; details: aqueous solution
Description: While a method for measuring CMC is not particularly limited, a method widely known in the art may be used, and the measurement may be performed by, for example, a fluorescence staining method using diphenylhexatriene (DPH).
(§1) Specifically, the critical micellar concentration (CMC) was measured using fluorescence staining and diphenylhexatriene (DPH), and the hydrodynamic radii (Rh) of the micelles formed by agents were measured through a dynamic light scattering (DLS) experiment. The measured results are shown in Tables 1 and 2, compared with a conventional amphiphilic molecule (detergent), DDM.

[2] = Hydrodynamic radius and size distribution of micelles by dynamic light scattering (DLS); type: physicochemical; details: for Rh (nm), hydrodynamic radius of micelles: 1.0 wt % stated for M-/O-XMAs (FIG. 37)
Description: A method for measuring the radius of a micelle is not particularly limited, but a method well known in the art may be used, and for example, the measurement may be performed using a dynamic light scattering (DLS) experiment.
as §1

[3] = system: leucine transporter (LeuT); assay: LeuT long-term stability, [3H]-Leu binding by scintillation proximity assay (SPA); type: biochemical, Aquifex aeolicus; details: room temperature, 12-day incubation; for LeuT long-term stability (ligand binding activity): CMC+0.04 wt %; for LeuT ligand binding activity maintained: CMC+0.2 wt %
Description: An experiment for measuring the structural stability of a LeuT protein due to M-XMAs or O-XMAs was performed. Each amphiphilic compound was used at CMC+0.04 wt % (a) or CMC+0.2 wt % (b), and the ligand-binding activity of LeuT was determined using [^3H]-Leu by scintillation proximity assay (SPA). Measurement was regularly performed at room temperature during a 12-day incubation period.
Specifically, wild-type leucine transporter (LeuT) derived from thermophilic bacteria Aquifex aeolicus was purified according to a previously disclosed protocol (G. Deckert et al., Nature 1998, 392, 353-358). In summary, LeuT was expressed in E. coli C41 (DE3) incubated in lysogeny broth supplemented with 0.1 mg/ml ampicillin. Protein expression was induced by adding isopropyl β-D-thiogalactopyranoside at the final concentration of 0.1 mM. Cell membranes were isolated from disrupted cells (Constant Systems Homogenizers, Kennesaw, Ga.), and solubilized in 1% (w/v) n-dodecyl-β-D-maltopyranoside (DDM; Affymetrix, Santa Clara, Calif.). After solubilization, LeuT was fixed to a chelating Sepharose Fast Flow resin (GE Healthcare), and approximately 90 to 100% pure LeuT was eluted in 20 mM Tris-HCl (pH 7.5), 199 mM KCl, 1 mM NaCl, 0.05% (w/v) DDM and 300 mM imidazole. Afterward, the purified LeuT (approximately 1.2 mg mL^−1) was diluted 10 times with buffer which is the same as that used above and supplemented with M-XMAs and O-XMA, except DDM and imidazole, at the final concentration of CMC+0.04% (w/v) or CMC+0.2% (w/v). DDM and P-XMA-C11 were used as positive controls. Protein samples were stored at room temperature, and protein activity at a predetermined time was determined by measuring [^3H]-Leucine binding using SPA. SPA was performed using a total volume of 100 μL of […] of each protein sample solubilized in a buffer containing 450 mM NaCl, 50 nM [^3H]-Leucine and 0.125 mg ml^−1 copper chelate (His-Tag) YSi beads (Perkin Elmer, Denmark). A [^3H]-Leucine binding degree was measured using a MicroBeta liquid scintillation counter (Perkin Elmer).

[4] = biological target: T1, human β2 adrenergic receptor (β2AR) (Homo sapiens, UniProt P07550); assay: [3H]-dihydroalprenolol radioligand binding of β2AR purified in detergent; details: 10 nM [3H]-DHA, 30 minutes, room temperature
T1 construct: made in house
T1 sequence (P07550 whole entry): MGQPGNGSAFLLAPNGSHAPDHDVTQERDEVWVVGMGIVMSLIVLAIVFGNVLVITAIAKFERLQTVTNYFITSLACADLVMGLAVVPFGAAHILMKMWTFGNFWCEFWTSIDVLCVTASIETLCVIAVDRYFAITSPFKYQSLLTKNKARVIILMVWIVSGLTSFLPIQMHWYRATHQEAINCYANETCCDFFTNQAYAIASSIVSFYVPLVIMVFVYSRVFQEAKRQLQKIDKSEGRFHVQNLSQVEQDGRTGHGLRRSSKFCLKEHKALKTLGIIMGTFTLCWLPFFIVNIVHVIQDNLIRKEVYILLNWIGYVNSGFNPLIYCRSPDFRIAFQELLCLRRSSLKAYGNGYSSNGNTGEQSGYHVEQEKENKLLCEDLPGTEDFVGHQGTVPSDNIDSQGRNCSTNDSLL
Description: An activation degree of a receptor (mBBr-β2AR) purified by DDM or XMAs was measured by [^3H]-dihydroalprenolol ([^3H]-DHA) binding.
Specifically, a radioligand binding assay was performed by the following method. β2AR was purified in the presence of 0.1% DDM. After β2AR was reloaded into an M1 Flag column in the presence of 2 mM CaCl2, a DDM (0.1%)-XMA (0.2%) buffer mixture was prepared in a ratio of 50:50, 20:80, 10:90, 5:95 or 0:100. The receptor was eluted in 20×CMC XMA with 5 mM EDTA and 0.2 mg/ml of a free Flag peptide. 0.1 pmol purified β2AR solubilized in DDM, P-XMA-C11, P-XMA-C12, M-XMAs or O-XMAs was incubated with 10 nM of radioactive DHA [^3H]-dihydroalprenolol (DHA) for 30 minutes at room temperature. The mixture was loaded into a G-50 column, and a flow-through was collected with a binding buffer (20 mM HEPES pH 7.5, supplemented with 0.5 mg/ml BSA, 100 mM NaCl), and further filled with 15 ml of a scintillation fluid. Receptor-binding [^3H]DHA was measured with a scintillation counter (Beckman). Non-specific binding of [^3H]-DHA was calculated by adding 1 μM of alprenolol (Sigma) in the same binding reaction. The binding degree of [^3H]-DHA was measured as a column graph.

[5] = biological target: T1, human β2 adrenergic receptor (β2AR); assay: mBBr-β2AR fluorescence spectrum after dilution to CMC or less; type: biochemical; details: diluted with NH buffer, 30 minutes
Description: An experiment for comparing changes in protein structures of XMAs and DDM at CMC or less of an amphiphilic molecule was carried out.
Specifically, 0.5 μl of an unliganded mBB-labeled receptor solubilized in 20×CMC P-XMA-C11 or P-XMA-C12 at 50 μM was diluted with 500 μl of a NH buffer (20 mM HEPES pH 7.5, 100 mM NaCl). The protein was incubated for 30 minutes, and the mBBr spectrum was measured. The receptor solubilized in 0.1% DDM was diluted with a NH buffer, and used as a control.

Structure (SMILES)	CMC [1]	CMC (wt %) [1] [wt %]	Rh (nm), hydrodynamic radius of micelles [2] [nm]	LeuT long-term stability (ligand binding activity) [3]	LeuT ligand binding activity maintained [3]	[3H]-DHA binding degree of purified β2AR [4]	size distribution of micelles (number of micelle sets) ([2]; FIGS. 36 and 37)	structural change of β2AR on dilution to CMC or less [5]
CCCCCCCCCCCCC(CO[C@@H]1OC(CO)[C@@H](O[C@@H]2OC(CO)[C@@H](O)C(O)C2O)C(O)C1O)(CO[C@@H]1OC(CO)[C@@H](O[C@@H]2OC(CO)[C@@H](O)C(O)C2O)C(O)C1O)Cc1ccccc1CC(CCCCCCCCCCCC)(CO[C@@H]1OC(CO)[C@@H](O[C@@H]2OC(CO)[C@@H](O)C(O)C2O)C(O)C1O)CO[C@@H]1OC(CO)[C@@H](O[C@@H]2OC(CO)[C@@H](O)C(O)C2O)C(O)C1O (stereo partly drawn) [O-XMA-C12]	~6.0 µM	~0.0011	3.2 ± 0.03	substantial reinforcement of long-term stability of LeuT, compared with DDM	superior at maintaining the ligand binding activity of LeuT compared to DDM	–	–	–
CCCCCCCCCCCC(CO[C@@H]1OC(CO)[C@@H](O[C@H]2OC(CO)[C@@H](O)C(O)C2O)C(O)C1O)(CO[C@@H]1OC(CO)[C@@H](O[C@H]2OC(CO)[C@@H](O)C(O)C2O)C(O)C1O)Cc1cccc(C[C@](CCCCCCCCCCC)(CO[C@@H]2OC(CO)[C@@H](O[C@H]3OC(CO)[C@@H](O)C(O)C3O)C(O)C2O)CO[C@@H]2OC(CO)[C@@H](O[C@@H]3OC(CO)[C@@H](O)C(O)C3O)C(O)C2O)c1 (stereo partly drawn) [M-XMA-C11]	~6.0 µM	~0.0011	3.2 ± 0.01	–	–	higher radioactive-ligand binding degree than P-XMA-C11	–	–
CCCCCCCCCCCC(CO[C@@H]1OC(CO)[C@@H](O[C@H]2OC(CO)[C@@H](O)C(O)C2O)C(O)C1O)(CO[C@@H]1OC(CO)[C@@H](O[C@H]2OC(CO)[C@@H](O)C(O)C2O)C(O)C1O)Cc1ccc(CC(CCCCCCCCCCC)(CO[C@@H]2OC(CO)[C@@H](O[C@H]3OC(CO)[C@@H](O)C(O)C3O)C(O)C2O)CO[C@@H]2OC(CO)[C@@H](O[C@H]3OC(CO)[C@@H](O)C(O)C3O)C(O)C2O)cc1 (stereo partly drawn) [P-XMA-C11]	~3 µM and ~3.0 µM	~0.0006	3.3 ± 0.03	–	–	radioactive-ligand binding degree similar to the receptor purified by DDM	two sets of micelles having different radii	less structural change
CCCCCCCCCCCCC(CO[C@@H]1OC(CO)[C@@H](O[C@H]2OC(CO)[C@@H](O)C(O)C2O)C(O)C1O)(CO[C@@H]1OC(CO)[C@@H](O[C@H]2OC(CO)[C@@H](O)C(O)C2O)C(O)C1O)Cc1cccc(C[C@](CCCCCCCCCCCC)(CO[C@@H]2OC(CO)[C@@H](O[C@H]3OC(CO)[C@@H](O)C(O)C3O)C(O)C2O)CO[C@@H]2OC(CO)[C@@H](O[C@@H]3OC(CO)[C@@H](O)C(O)C3O)C(O)C2O)c1 (stereo partly drawn) [M-XMA-C12]	~4.0 µM	~0.0008	3.4 ± 0.02	substantial reinforcement of long-term stability of LeuT, compared with DDM; also recorded: higher stability than O-XMA-C12	superior at maintaining the ligand binding activity of LeuT compared to DDM; also recorded: generally better performance than O-XMA-C12	superior to O-XMA-C12, and similar to DDM	–	–
